Here are results for 12 compounds from BindingDB's records for doi:10.1021/jm0496077 (University of Southern California, 2005).

For assay [1], the target named is Integrase (Human immunodeficiency virus 1). Put plainly: Inhibitory concentration against human immuno deficiency virus type 1 integrase (3'-processing).
Assay [2] shares this target. Put plainly: Inhibitory concentration against human immuno deficiency virus type 1 integrase (Strand Transfer).
Assay [3] shares this target. Put plainly: Concentration required to inhibit catalytic activity of human immuno deficiency virus type 1 integrase.

In the case of `O=C(CN1C(=O)/C(=C2\SC(=S)N(CC(=O)Nc3ccc(C(=O)O)cc3)C2=O)SC1=S)Nc1ccc(C(=O)O)cc1` [4-{5-[3-(4-carboxyphenylcarbamoylmethyl)-4-oxo-2-thioxo-1,3-thiazolan-5-yliden]-4-oxo-2-thioxo-1,3-thiazolan-3-ylmethylcarboxamido}benzoic acid], the IC50 in assay [1] worked out at 59 µM; in assay [2], 75 µM.
The matching figures for `O=C(CCN1C(=O)/C(=C/c2cccs2)SC1=S)Nc1ccc2ccccc2c1` [N-Naphthalen-2-yl-3-{4-oxo-5-[1-thiophen-2-yl-meth-(Z)-ylidene]-2-thioxo-thiazolidin-3-yl}-propionamide]: more than 100 µM and more than 100 µM.
Take `O=C(/C=C(\O)c1ccc(Cc2ccc(F)cc2)o1)c1cc[nH]c1`: in assay [3], the IC50 was less than 1 µM.
`O=C1/C(=C/c2ccc(O)cc2O)SC(=S)N1c1ccccc1` [5-[1-(2,4-Dihydroxy-phenyl)-meth-(Z)-ylidene]-3-phenyl-2-thioxo-thiazolidin-4-one]: the IC50 in assay [1] and in assay [2] was more than 100 µM each time.
Turning to `O=C(CCN1C(=O)/C(=C/c2ccc3c(c2)OCO3)SC1=S)Nc1ccc(O)c(C(=O)O)c1` [5-(3-{5-[1-Benzo[1,3]dioxol-5-yl-meth-(Z)-ylidene]-4-oxo-2-thioxo-thiazolidin-3-yl}-propionylamino)-2-hydroxy-benzoic acid], the IC50 is 15 µM in assay [1] and 17 µM in assay [2].
The matching figures for `CCOc1ccc(/C=C2\SC(=S)N(CCC(=O)Nc3cccc(C(=O)O)c3)C2=O)cc1`: 93 µM and more than 100 µM.
The matching figures for `O=C(O)c1ccc(S(=O)(=O)c2ccc3c(c2)C(=O)N(c2ccc(O)c(C(=O)O)c2)C3=O)cc1` [5-[5-(4-Carboxy-benzenesulfonyl)-1,3-dioxo-1,3-dihydro-isoindol-2-yl]-2-hydroxy-benzoic acid]: 66 µM and 44 µM.
Turning to `Cc1ccc(/C=C2\SC(=S)N(CC(=O)Nc3cc([N+](=O)[O-])ccc3O)C2=O)cc1` [N-(2-Hydroxy-5-nitro-phenyl)-2-{4-oxo-2-thioxo-5-[1-p-tolyl-meth-(Z)-ylidene]-thiazolidin-3-yl}-acetamide], the IC50 in assay [1] was determined as 84 µM; in assay [2] it was 80 µM.
The matching figures for `O=C1/C(=C/c2c(NCCO)nc3ccccn3c2=O)SC(=S)N1Cc1ccco1` [3-[3-Furan-2-ylmethyl-4-oxo-2-thioxo-thiazolidin-(5E)-ylidenemethyl]-2-(2-hydroxy-ethylamino)-pyrido[1,2-a]pyrimidin-4-one]: more than 100 µM and 100 µM.
For `CCc1ccc(/C=C2\SC(=S)N(CCC(=O)Nc3ccc(O)c(C(=O)O)c3)C2=O)cc1` [5-(3-{5-[1-(4-Ethyl-phenyl)-meth-(Z)-ylidene]-4-oxo-2-thioxo-thiazolidin-3-yl}-propionylamino)-2-hydroxy-benzoic acid], the IC50 in assay [1] stood at 15 µM; in assay [2], 11 µM.
The matching figures for `CC(/C=C1\SC(=S)N(CCC(=O)Nc2ccc(O)c(C(=O)O)c2)C1=O)=C\c1ccccc1` [2-Hydroxy-5-(3-{5-[(E)-2-methyl-3-phenyl-prop-2-en-(Z)-ylidene]-4-oxo-2-thioxo-thiazolidin-3-yl}-propionylamino)-benzoic acid]: 36 µM and 23 µM.
In the same order, the values of `Cc1ccc(/C=C2\SC(=S)N(CC(=O)Nc3ccc([N+](=O)[O-])cc3O)C2=O)cc1` [N-(2-Hydroxy-4-nitro-phenyl)-2-{4-oxo-2-thioxo-5-[1-p-tolyl-meth-(Z)-ylidene]-thiazolidin-3-yl}-acetamide] are more than 100 µM and more than 100 µM.
